Source: patent US20240226049A1, “METHODS OF TREATMENT USING BEMPEDOIC ACID” (Esperion Therapeutics, Inc., priority 2023, published 2024)

What was measured:
[1] = tested on: primary prevention patients unable to tolerate recommended doses of statins; test: CLEAR OUTCOMES primary prevention subgroup (Example 2): effects on LDL cholesterol and hsCRP; type: in vivo, human
Protocol: The rationale, design and methods of the CLEAR Outcomes trial is described in Example 1. The trial was conducted at 1250 sites in 32 countries and designed by the Cleveland Clinic Coordinating Center for Clinical Research (C5Research) and an academic Executive Committee in collaboration with the sponsor. The protocol was approved by ethics committees at participating sites and all patients provided written informed consent before enrollment. A contract research organization collected the data which were transferred to C5Research at completion of the trial whose statisticians conducted the analyses described herein. An independent Data Monitoring Committee monitored the trial.
Primary prevention patients 18 to 85 years of age with an LDL cholesterol ≥100 mg/dL with clinical features placing them at high risk for a first cardiovascular event were eligible. Criteria for high cardiovascular risk included risk scores, such as the Reynolds Risk Score and the SCORE project (Ridker et al., Development and validation of improved algorithms for the assessment of global cardiovascular risk in women: the Reynolds Risk Score, JAMA. 2007 Feb. 14; 297(6):611-9; Ridker et al., C-reactive protein and parental history improve global cardiovascular risk prediction. The Reynolds Risk Score for men, Circulation. 2008; 118: 2243-2251; European Guidelines on CVD Prevention in Clinical Practice. 2016. Eur J Prev Cardiol. 2016 July; 23(11):NP1-NP96), a coronary artery calcium score >400 Agatston units (AU) or presence of either type 1 or 2 diabetes in women aged >65 years or men older than 60 years.
Investigators were responsible for assessing the patient for statin intolerance. Patients had to report statin intolerance due to an adverse effect that started or increased during statin therapy and resolved or improved after statin therapy was discontinued. Entry criteria required inability to tolerate 2 or more statins at any dose or 1 statin and unwillingness to attempt a second statin or advised by a physician not to attempt taking a second statin. Both the patient and site investigator were required to provide written confirmation that the patient was statin intolerant and aware of the benefits of statins to reduce the risk of cardiovascular events, including death, and acknowledge that many patients who are unable to tolerate a statin can tolerate a different statin or dose. Patients could be enrolled if they tolerated a very low average daily statin dose defined as rosuvastatin <5 mg, atorvastatin <10 mg, simvastatin <10 mg, lovastatin <20 mg, pravastatin <40 mg, fluvastatin <40 mg, or pitavastatin <2 mg. Other background lipid-lowering therapies were permitted, including ezetimibe, niacin, bile acid resins, fibrates, and/or proprotein convertase subtilisin kexin type 9 (PCSK9) inhibitors.
Eligible patients entered a 4-week run-in period during which patients were treated with single-blind placebo. If patients were intolerant to placebo treatment or if adherence was <80% by tablet count, they were not eligible for randomization. Patients who successfully completed the run-in period were randomly assigned in a 1:1 ratio to receive a 180 mg oral dose of bempedoic acid or matching placebo, administered daily. During the trial, LDL cholesterol and hsCRP results were masked. Beginning 6 months after randomization, the central laboratory notified the investigator, who remained blinded to treatment assignment, if the patient's LDL cholesterol level was ≥25% higher than baseline. Repeat testing was performed after the patient was counseled about diet and encouraged to take all medications as prescribed. The patient returned for a repeat fasting blood lipid profile to confirm whether the LDL cholesterol value exceeded the threshold criteria. If confirmed, the patient's treatment regimen for LDL cholesterol lowering could be adjusted, per standard of care and local practice. […]

[2] = tested on: statin-intolerant patients with or at high risk of CVD; test: CLEAR OUTCOMES trial (Example 1): effect on LDL-cholesterol, hsCRP, other lipids and glycaemic biomarkers; type: in vivo, human
From the text: The CLEAR OUTCOMES trial was a randomized, placebo-controlled, double-blind trial that enrolled patients at 1250 sites in 32 countries. An independent Data Monitoring Committee reviewed safety and efficacy data during the trial.
Patients 18 to 85 years of age were eligible for enrollment if they met either of two criteria for increased cardiovascular risk, a prior cardiovascular event (secondary prevention) or clinical features that placed them at high risk for a cardiovascular event (primary prevention). (Nicholls S. Lincoff A M, Bays H E, et al. Rationale and design of the CLEAR-outcomes trial: Evaluating the effect of bempedoic acid on cardiovascular events in patients with statin intolerance. Am Heart J. 2021 May; 235:104-112) All patients provided written informed consent. Patients had to report statin intolerance due to an adverse effect that started or increased during statin therapy and resolved or improved after statin therapy was discontinued. Patients could be enrolled if they tolerated a very low average daily statin dose (e.g., an average daily dose of rosuvastatin <5 mg, atorvastatin <10 mg, simvastatin <10 mg, lovastatin <20 mg, pravastatin <40 mg, fluvastatin <40 mg, or pitavastatin <2 mg). Other lipid-lowering therapies were permitted, including ezetimibe, niacin, bile acid resins, fibrates, and/or proprotein convertase subtilisin kexin type 9 (PCSK9) inhibitors. Full inclusion and exclusion criteria are provided in Nicholls et al. (Am Heart J. 2021).
Eligible patients entered a 4-week run-in period during which patients were treated with single-blind placebo. If patients were intolerant to placebo treatment or if adherence was <80% by tablet count, they were not eligible for randomization. Patients who successfully completed the run-in period were randomly assigned in a 1:1 ratio to receive bempedoic acid at an oral dose of 180 mg or matching placebo, administered daily. Beginning 6 months after enrollment, the central laboratory notified the investigator if the patient's LDL-cholesterol level was ≥25% higher than baseline. These patients were counseled on healthy dietary guidelines and reminded to take all lipid-regulating medications. If repeat testing confirmed that LDL-cholesterol value met the threshold criteria, the provider could adjust the lipid-lowering treatment regimen per standard of care and local guidelines.
This was an event-driven trial designed to provide at least 90% power to detect a 15% relative risk reduction for the primary composite end point at an overall two-sided significance level of 0.05. The trial required a minimum of 1620 primary composite events with ≥24 months of follow-up for all patients and at least 810 first key secondary end points. The average treatment duration was estimated to be 42 months and a lost-to-follow-up rate of 1% per year. Assuming a 3.59% annual event rate in the placebo group, enrollment of 12,600 patients was required, subsequently amended to 14,000. There were no interim efficacy analyses. A hierarchical approach was prespecified to evaluate sequentially each of the six key secondary efficacy end points with statistical significance at each step required to test the next hypothesis, thereby preserving the study-wise Type I error rate at 5%. All analyses were based on the intent-to-treat principle. The primary efficacy end point was analyzed using Cox proportional hazards model with treatment as a factor to generate the hazard ratio (HR) and 95% confidence interval (CI). The p-value was obtained from a log-rank test.

[3] = primary prevention subgroup, vs placebo
[4] = primary prevention, after 12 months treatment
[5] = primary prevention, baseline mean 142.2 mg/dL
[6] = baseline mean 139.0 mg/dL, full population

## CC(C)(CCCCCC(O)CCCCCC(C)(C)C(=O)O)C(=O)O [Bempedoic Acid, Bempedoic acid]
[1]; [3]
  time-averaged difference in LDL cholesterol over the course of the trial: 23.2 mg/dL
  time-averaged difference in LDL cholesterol over the duration of the trial, percent: 16.3%
[1]; [4]
  difference in hsCRP reduction compared with placebo: 0.56 mg/L
  difference in hsCRP reduction compared with placebo, percent: 21.5%
[1]; [5]
  LS mean difference in LDL cholesterol compared with placebo after 6 months, percent: 21.3%
  LS mean reduction in LDL cholesterol compared with placebo after 6 months of treatment: 30.2 mg/dL
[1]; primary prevention, median baseline 2.4 mg/L, bempedoic acid group
  reduction of hsCRP after 12 months treatment: 0.34 mg/L
[2]; [6]
  placebo-subtracted reduction in LDL-cholesterol after 6 months of treatment: 29.2 mg/dL
  placebo-subtracted reduction in LDL-cholesterol after 6 months of treatment, percent: 21.1%
[2]; bempedoic acid vs placebo
  Change from baseline to month 12 in HbA1C in patients with inadequately controlled type 2 diabetes mellitus, Difference: −0.03%
[2]; observed mean ± SD
  Change from baseline to Month 6 in HbA1c (%), All patients: −0.003 ± 0.6^ %
  Change from baseline to Month 6 in HbA1c (%), Inadequately Controlled Diabetes at Baseline: −0.20 ± 1.0%
  Change from baseline to Month 12 in HbA1c (%), All patients: 0.04 ± 0.74%
  Change from baseline to Month 12 in HbA1c (%), Inadequately Controlled Diabetes at Baseline: −0.06 ± 1.3%
[2]; prior to initial administration as baseline
  decrease in LDL-C as compared to baseline: about 21%
[2]; vs placebo, over the trial, full population
  time-averaged reduction in LDL-cholesterol, percent: 15.9%
